Article PMC11790914, “Chemogenomics for steroid hormone receptors (NR3)” (Communications Chemistry, 2025)
“And” between values parts separate entries of the source, which are not always exact repeats. Identical values can stand only once. Like-named read-outs stand apart in the source and are kept apart here.

Assays:
NR3C2 (MR) = conditions: (lit.); ref Supplementary Table 1; read-out: Potency [nM] EC50, NR3C2 (MR); cited from earlier work
FGFR3 = target: T1, FGFR3 (Homo sapiens, UniProt P22607); assay: Liability panel screening by DSF: FGFR3; type: binding; conditions: read-out: Mean ΔTM FGFR3
T1 construct: made in house
T1 sequence (P22607 23-806, species assumed): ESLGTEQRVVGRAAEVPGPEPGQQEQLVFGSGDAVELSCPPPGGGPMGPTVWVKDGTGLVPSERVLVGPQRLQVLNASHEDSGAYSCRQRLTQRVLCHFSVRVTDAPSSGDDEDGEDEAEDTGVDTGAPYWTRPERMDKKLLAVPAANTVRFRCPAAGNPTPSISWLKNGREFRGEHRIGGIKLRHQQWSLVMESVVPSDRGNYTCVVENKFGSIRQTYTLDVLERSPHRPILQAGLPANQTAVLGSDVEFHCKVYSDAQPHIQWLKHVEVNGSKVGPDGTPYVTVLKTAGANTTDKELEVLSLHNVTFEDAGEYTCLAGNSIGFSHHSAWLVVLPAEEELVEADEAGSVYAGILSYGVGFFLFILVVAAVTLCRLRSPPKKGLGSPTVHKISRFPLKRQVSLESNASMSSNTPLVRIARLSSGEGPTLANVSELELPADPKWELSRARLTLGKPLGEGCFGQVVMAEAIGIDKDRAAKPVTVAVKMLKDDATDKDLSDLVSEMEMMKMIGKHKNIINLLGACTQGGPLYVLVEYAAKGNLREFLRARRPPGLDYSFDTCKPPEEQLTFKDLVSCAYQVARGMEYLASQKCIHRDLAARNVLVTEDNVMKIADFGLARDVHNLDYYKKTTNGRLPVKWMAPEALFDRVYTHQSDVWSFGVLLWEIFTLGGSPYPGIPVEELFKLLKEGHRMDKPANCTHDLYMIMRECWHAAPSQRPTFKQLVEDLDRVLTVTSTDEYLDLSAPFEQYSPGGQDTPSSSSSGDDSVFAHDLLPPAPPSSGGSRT
Method in brief: (§1)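 Thermal shift: in-house recombinant protein at 2 µM in 10 mM HEPES pH 7.5 with 500 mM NaCl, SYPRO Orange 1:1000, heated at 3 °C/min to 85 °C in technical duplicates. Tm is the Boltzmann inflection point, reported as ∆Tm in K.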

HEK293T cells [1] = assay: Cytotoxicity: apoptosis induction (caspase-3/7 DEVD fluorogenic DNA dye); conditions: 1 µM; HEK293T, 24 h; apoptotic cell count normalized to 0.1% DMSO; single replicates
BRD4 = target: T2, BRD4 (Homo sapiens, UniProt O60885); assay: Liability panel screening by DSF: BRD4; type: binding; conditions: read-out: Mean ΔTM BRD4
T2 construct: This panel comprised ten highly ligandable kinases and bromodomains; made in house
Method in brief: as §1

BRPF1 = target: T3, BRPF1 (Homo sapiens, UniProt P55201); assay: Liability panel screening by DSF: BRPF1; type: binding; conditions: read-out: Mean ΔTM BRPF1
T3 construct: This panel comprised ten highly ligandable kinases and bromodomains; made in house
T3 sequence (P55201 628-732 limits assumed): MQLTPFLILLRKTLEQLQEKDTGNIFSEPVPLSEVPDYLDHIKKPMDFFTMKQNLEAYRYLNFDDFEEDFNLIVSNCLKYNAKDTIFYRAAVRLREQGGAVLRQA
Method in brief: as §1

[2] = system: NF-κB activity in HEK293 NF-κB reporter cells; assay: NF-kB activity assay (GFP reporter, ionomycin/PMA); type: cell-based; conditions: n=3
Method in brief: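 Reporter readout: GFP-expressing cells normalized to confluence, imaged every 90 min across 24 h after ionomycin (100 ng/mL)/PMA (10 ng/mL) stimulation of HEK293 cells pre-treated 4 h with compound (0.1% DMSO); triplicate independent experiments.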

TRIM24 = target: T4, TRIM24 (Homo sapiens, UniProt O15164); assay: Liability panel screening by DSF: TRIM24; type: binding; conditions: read-out: Mean ΔTM TRIM24
T4 construct: This panel comprised ten highly ligandable kinases and bromodomains; made in house
T4 sequence (O15164 899-1004 limits assumed): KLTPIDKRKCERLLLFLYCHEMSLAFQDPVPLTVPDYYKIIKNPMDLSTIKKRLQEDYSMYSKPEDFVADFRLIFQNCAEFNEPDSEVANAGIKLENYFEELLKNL
Method in brief: as §1

AURKA = target: T5, AURKA (Homo sapiens, UniProt O14965); assay: Liability panel screening by DSF: AURKA; type: binding; conditions: read-out: Mean ΔTM AURKA
T5 construct: made in house
T5 sequence (O14965 1-403): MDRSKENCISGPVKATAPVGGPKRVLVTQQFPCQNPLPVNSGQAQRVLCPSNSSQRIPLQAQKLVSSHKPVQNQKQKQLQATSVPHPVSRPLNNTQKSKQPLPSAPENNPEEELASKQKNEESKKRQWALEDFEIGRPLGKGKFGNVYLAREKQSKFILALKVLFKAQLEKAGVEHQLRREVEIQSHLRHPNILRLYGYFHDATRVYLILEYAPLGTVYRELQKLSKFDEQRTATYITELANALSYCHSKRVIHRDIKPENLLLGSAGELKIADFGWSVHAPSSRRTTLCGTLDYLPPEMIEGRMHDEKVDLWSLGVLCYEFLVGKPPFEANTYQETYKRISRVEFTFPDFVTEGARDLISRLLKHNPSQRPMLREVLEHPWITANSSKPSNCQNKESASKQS
Method in brief: as §1

NR3C3 (PR) = conditions: (lit.); ref Supplementary Table 1; read-out: Potency [nM] EC50, NR3C3 (PR); cited from earlier work
CSNK1D = target: T6, CSNK1D (Homo sapiens, UniProt P48730); assay: Liability panel screening by DSF: CSNK1D; type: binding; conditions: read-out: Mean ΔTM CSNK1D
T6 construct: made in house
T6 sequence (P48730 whole entry, species assumed): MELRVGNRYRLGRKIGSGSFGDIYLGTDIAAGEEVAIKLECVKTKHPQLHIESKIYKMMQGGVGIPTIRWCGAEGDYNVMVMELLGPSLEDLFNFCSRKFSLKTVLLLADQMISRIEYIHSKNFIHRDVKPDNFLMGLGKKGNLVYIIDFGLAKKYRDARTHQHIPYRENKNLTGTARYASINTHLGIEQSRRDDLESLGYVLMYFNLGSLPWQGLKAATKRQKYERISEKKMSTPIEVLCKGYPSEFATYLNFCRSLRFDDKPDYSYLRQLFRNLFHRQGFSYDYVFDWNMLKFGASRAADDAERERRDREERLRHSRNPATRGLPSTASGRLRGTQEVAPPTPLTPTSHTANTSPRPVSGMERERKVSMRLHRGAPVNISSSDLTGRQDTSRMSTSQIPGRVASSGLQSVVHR
Method in brief: as §1

CDK2 = target: T7, CDK2 (Homo sapiens, UniProt P24941); assay: Liability panel screening by DSF: CDK2; type: binding; conditions: read-out: Mean ΔTM CDK2
T7 construct: made in house
Method in brief: as §1

GSK3B = target: T8, GSK3B (Homo sapiens, UniProt P49841); assay: Liability panel screening by DSF: GSK3B; type: binding; conditions: read-out: Mean ΔTM GSK3B
T8 construct: made in house
T8 sequence (P49841 whole entry, species assumed): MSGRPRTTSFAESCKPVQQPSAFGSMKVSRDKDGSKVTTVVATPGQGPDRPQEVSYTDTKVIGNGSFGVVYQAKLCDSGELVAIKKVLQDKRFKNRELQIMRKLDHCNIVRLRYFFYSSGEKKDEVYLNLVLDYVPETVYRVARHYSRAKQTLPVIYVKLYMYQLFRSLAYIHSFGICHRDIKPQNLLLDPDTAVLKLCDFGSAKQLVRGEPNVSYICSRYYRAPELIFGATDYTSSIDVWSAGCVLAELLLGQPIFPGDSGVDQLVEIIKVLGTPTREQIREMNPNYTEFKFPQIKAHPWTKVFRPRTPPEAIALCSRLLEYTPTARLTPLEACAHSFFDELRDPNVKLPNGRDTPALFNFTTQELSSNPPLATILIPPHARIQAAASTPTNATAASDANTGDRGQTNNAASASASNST

NR3C4 (AR) = conditions: read-out: Potency [nM] EC50, NR3C4 (AR); cited from earlier work
HEK293T cells [3] = assay: Cytotoxicity: metabolic activity (WST-8 / CCK-8 assay); conditions: 1 µM; HEK293T, 24 h; WST-8; normalized to 0.1% DMSO; single replicates
ABL1 = target: T9, ABL1 (Homo sapiens, UniProt P00519); assay: Liability panel screening by DSF: ABL1; type: binding; conditions: read-out: Mean ΔTM ABL1
T9 construct: made in house
T9 sequence (P00519 whole entry, species assumed): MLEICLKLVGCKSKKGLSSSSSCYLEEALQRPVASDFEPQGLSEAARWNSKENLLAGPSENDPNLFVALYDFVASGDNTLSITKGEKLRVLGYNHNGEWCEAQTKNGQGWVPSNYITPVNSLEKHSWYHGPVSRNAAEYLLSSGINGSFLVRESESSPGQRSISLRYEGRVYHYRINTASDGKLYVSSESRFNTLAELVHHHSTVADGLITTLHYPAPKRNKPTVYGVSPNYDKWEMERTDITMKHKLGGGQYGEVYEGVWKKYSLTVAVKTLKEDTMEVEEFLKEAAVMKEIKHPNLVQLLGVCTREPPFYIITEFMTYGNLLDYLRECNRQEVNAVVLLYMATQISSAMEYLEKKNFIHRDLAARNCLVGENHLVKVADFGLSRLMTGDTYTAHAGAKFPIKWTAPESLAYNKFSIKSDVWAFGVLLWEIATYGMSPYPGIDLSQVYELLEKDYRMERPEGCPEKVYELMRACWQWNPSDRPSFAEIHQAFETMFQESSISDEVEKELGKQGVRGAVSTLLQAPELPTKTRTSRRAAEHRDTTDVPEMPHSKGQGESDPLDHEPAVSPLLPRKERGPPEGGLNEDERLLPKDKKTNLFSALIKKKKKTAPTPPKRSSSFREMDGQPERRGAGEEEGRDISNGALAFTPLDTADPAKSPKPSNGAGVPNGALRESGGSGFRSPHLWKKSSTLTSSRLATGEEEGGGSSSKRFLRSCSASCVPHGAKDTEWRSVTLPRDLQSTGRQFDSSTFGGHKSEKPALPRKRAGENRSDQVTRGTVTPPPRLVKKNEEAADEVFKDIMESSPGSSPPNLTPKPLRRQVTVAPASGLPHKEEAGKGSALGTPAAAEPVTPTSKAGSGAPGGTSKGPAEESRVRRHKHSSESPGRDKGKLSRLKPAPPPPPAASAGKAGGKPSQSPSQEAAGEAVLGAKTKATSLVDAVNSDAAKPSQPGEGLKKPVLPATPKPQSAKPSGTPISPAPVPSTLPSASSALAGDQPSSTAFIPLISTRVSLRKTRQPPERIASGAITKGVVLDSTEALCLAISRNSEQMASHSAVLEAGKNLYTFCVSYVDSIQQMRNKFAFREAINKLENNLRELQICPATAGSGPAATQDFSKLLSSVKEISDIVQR
Method in brief: as §1

[4] = system: ATF6 activity in Hela ATF6 reporter cells; assay: Endoplasmic reticulum stress assay (ATF6 Renilla luciferase reporter, tunicamycin); type: cell-based; conditions: Homo sapiens, HeLa, 1 µM, single replicates n=1 to n=5; read-out: ER stress [rel. ATF6 activity]
Method in brief: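 ER stress was induced by 100 ng/mL tunicamycin added 4 h after compound (0.1% DMSO) to HeLa ATF6 reporter cells. After 18 h more, Renilla luciferase signal was read and expressed relative to DMSO control, n=5 biological replicates.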

HEK293T cells [5] = assay: Cytotoxicity: necrosis induction (red fluorescent dye for permeable plasma membranes); type: cell-based; conditions: 1 µM, 24 h, necrotic cell count normalized to 0.1% DMSO, single replicates;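 note: compounds applied in DMEM high glucose with 0.1% FCS and 0.1% DMSO, necrotic HEK293T cells counted by red staining of cells whose plasma membranes had become permeable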
NR3C1 (GR) = conditions: (lit.); ref Supplementary Table 1; read-out: Potency [nM] EC50, NR3C1 (GR); cited from earlier work
HEK293T cells [6] = assay: Cytotoxicity: growth-rate (change in confluence over 24 h); conditions: 1 µM, normalized to 0.1% DMSO control, single replicates (n=1...)
MAPK1 = target: T10, MAPK1 (Homo sapiens, UniProt P28482); assay: Liability panel screening by DSF: MAPK1; type: binding; conditions: read-out: Mean ΔTM MAPK1
T10 construct: made in house
T10 sequence (P28482 whole entry, species assumed): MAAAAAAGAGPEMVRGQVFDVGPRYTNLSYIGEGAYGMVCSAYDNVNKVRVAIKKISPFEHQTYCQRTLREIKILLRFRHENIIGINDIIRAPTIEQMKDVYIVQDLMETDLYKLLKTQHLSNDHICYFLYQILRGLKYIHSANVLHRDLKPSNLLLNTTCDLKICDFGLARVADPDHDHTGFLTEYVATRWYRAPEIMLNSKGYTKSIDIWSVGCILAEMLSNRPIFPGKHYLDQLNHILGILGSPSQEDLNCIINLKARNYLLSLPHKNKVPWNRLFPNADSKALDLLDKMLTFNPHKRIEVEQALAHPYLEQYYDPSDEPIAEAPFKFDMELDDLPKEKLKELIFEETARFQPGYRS
Method in brief: as §1

SMILES | EC50 (NR3C2 (MR)) [nM] | Apoptosis induction [AI] (HEK293T cells [1]) | Mean NFκB response ([2]; 1 µM, 1,5 h) | Mean NFκB response ([2]; 1 µM, 4,5 h) | Mean NFκB response ([2]; 1 µM, 7,5 h) | Mean NFκB response ([2]; 1 µM, 10,5 h) | Mean NFκB response ([2]; 1 µM, 13,5 h) | Mean NFκB response ([2]; 1 µM, 16,6 h) | Mean NFκB response ([2]; 1 µM, 19,5 h) | Mean NFκB response ([2]; 1 µM, 22,5 h) | Mean NFκB response ([2]; 1 µM, 3 h) | Mean NFκB response ([2]; 1 µM, 6 h) | Mean NFκB response ([2]; 1 µM, 9 h) | Mean NFκB response ([2]; 1 µM, 12 h) | Mean NFκB response ([2]; 1 µM, 15 h) | Mean NFκB response ([2]; 1 µM, 18 h) | Mean NFκB response ([2]; 1 µM, 21 h) | Mean NFκB response ([2]; 1 µM, 24 h) | EC50 (NR3C3 (PR)) [nM] | activity at 1 µM [4] [%] | other results
C[C@]1(O)CC[C@H]2[C@@H]3CCC4=CC(=O)CCC4=C3C=C[C@@]21C [Methyltrienolone] | 0.5 ± 0.1 | 0.87 and 1.36 and 0.90 and 1.12 and 0.53 and 0.75 | 3531.33 GFP+-cells/confluence ∙ 1000 | 3781.33 GFP+-cells/confluence ∙ 1000 | 7660.67 GFP+-cells/confluence ∙ 1000 | 17176.00 GFP+-cells/confluence ∙ 1000 | 24525.33 GFP+-cells/confluence ∙ 1000 | 30685.33 GFP+-cells/confluence ∙ 1000 | 34386.67 GFP+-cells/confluence ∙ 1000 | 37650.00 GFP+-cells/confluence ∙ 1000 | 3552.67 GFP+-cells/confluence ∙ 1000 | 4781.67 GFP+-cells/confluence ∙ 1000 | 12656.33 GFP+-cells/confluence ∙ 1000 | 21183.67 GFP+-cells/confluence ∙ 1000 | 28114.67 GFP+-cells/confluence ∙ 1000 | 32970.33 GFP+-cells/confluence ∙ 1000 | 36266.67 GFP+-cells/confluence ∙ 1000 | 38486.67 GFP+-cells/confluence ∙ 1000 | 0.5 ± 0.3 | 100 | ΔTm at 20 µM (FGFR3): 0.15 °C; ΔTm at 20 µM (BRD4): -0.94 °C; ΔTm at 20 µM (BRPF1): -1.21 °C; ΔTm at 20 µM (TRIM24): -0.03 °C; ΔTm at 20 µM (AURKA): 0.08 °C; ΔTm at 20 µM (CSNK1D): -0.05 °C; ΔTm at 20 µM (CDK2): -0.06 °C; ΔTm at 20 µM (GSK3B): -0.24 °C; EC50 (NR3C4 (AR)): 0.01 ± 0.01 nM; Metabolic activity [MA] (HEK293T cells [3]): 0.98 and 1.02 and 0.97 (2×) and 1.07 and 1.05 and 1.13 and 1.10; ΔTm at 20 µM (ABL1): 0.42 °C; Necrosis induction [NI] (HEK293T cells [5]): 0.85 and 1.01 and 0.97 and 1.35; EC50 (NR3C1 (GR)): 10 ± 4 nM; Growth rate [GR] (HEK293T cells [6]): 0.54 and 2.52 and 1.01 and 1.07 and 0.85 and 1.02 and 1.00 and 1.19 and 1.25 and 1.79; ΔTm at 20 µM (MAPK1): -0.02 °C
N#Cc1ccc(N2N=C3c4ccc(C(=O)O)cc4CC[C@@H]3[C@@H]2C2CCCC2)cc1Cl [PF-03882845] | 9 | 0.00 (4×) and 0.46 and 0.70 | 2659.67 GFP+-cells/confluence ∙ 1000 | 3143.33 GFP+-cells/confluence ∙ 1000 | 6360.00 GFP+-cells/confluence ∙ 1000 | 17053.33 GFP+-cells/confluence ∙ 1000 | 25306.67 GFP+-cells/confluence ∙ 1000 | 31613.33 GFP+-cells/confluence ∙ 1000 | 36320.00 GFP+-cells/confluence ∙ 1000 | 39133.33 GFP+-cells/confluence ∙ 1000 | 2686.67 GFP+-cells/confluence ∙ 1000 | 3810.00 GFP+-cells/confluence ∙ 1000 | 11590.00 GFP+-cells/confluence ∙ 1000 | 21213.33 GFP+-cells/confluence ∙ 1000 | 28830.00 GFP+-cells/confluence ∙ 1000 | 34136.67 GFP+-cells/confluence ∙ 1000 | 37763.33 GFP+-cells/confluence ∙ 1000 | 40546.67 GFP+-cells/confluence ∙ 1000 | 416 | 94 | ΔTm at 20 µM (BRD4; DSF, 20 µM, n=2): 0 °C; ΔTm at 20 µM (BRPF1; DSF, 20 µM, n=2): -8.37 °C; ΔTm at 20 µM (TRIM24; DSF, 20 µM, n=2): 1.43 °C; ΔTm at 20 µM (AURKA; DSF, 20 µM, n=2): 0.42 °C; ΔTm at 20 µM (CSNK1D; DSF, 20 µM, n=2): -4.9 °C; ΔTm at 20 µM (CDK2; DSF, 20 µM, n=2): -2.04 °C; ΔTm at 20 µM (GSK3B; DSF, 20 µM, n=2): 0 °C; ΔTm at 20 µM (ABL1; DSF, 20 µM, n=2): -2.47 °C; Necrosis induction [NI] (HEK293T cells [5]): 1.10 and 0.88 and 0.95 and 1.46; ΔTm at 20 µM (MAPK1; DSF, 20 µM, n=2): -9.49 °C
